Broadly, the logD is lipophilicity at a set pH, counting ionised and neutral species.

Consider 15 compounds from paper PMC8541144, “Synthesis, Characterization and In Vitro Evaluation of Hybrid Monomeric Peptides Suited for Multimodal Imaging by PET/OI: Extending the Concept of Charge—Cell Binding Correlation” (Pharmaceuticals, 2021).

The nature of data set [1]: LogD determination: partition between 1-octanol and phosphate buffer pH 7.4. As for the experimental part: In the following, the lipophilicity of the labeled conjugates was investigated to get a first idea of the potential excretion pathway of the agents during an in vivo application. The logD values were determined by partition experiments between n-octanol and aqueous solution at pH 7.4.
The mixtures were intensively shaken for 5 min on a vibrating plate. After subsequent centrifugation at 13,000 rpm for 5 min, 125 µL were taken from each phase and measured in a γ-counter. The logD values were calculated from three or four independent experiments, each performed in triplicate.

Details of data set [2]: method as in PMID 32618007, PMID 32948032. As to conditions: MIUs; mean ± SD; ref [20],[21]; cited from earlier work.
Details of data set [3]: method as in PMID 32618007, PMID 32948032. As to conditions: ref [20],[21], cited from earlier work.

Read-outs that look alike come from different tables or passages of the source.

In data set [1], `CSCC[C@H](NC(=O)[C@H](CC(C)C)NC(=O)[C@H](Cc1c[nH]cn1)NC(=O)CNC(=O)[C@@H](NC(=O)[C@H](C)NC(=O)[C@H](Cc1c[nH]c2ccccc12)NC(=O)[C@H](CCC(N)=O)NC(=O)CCOCCOCCOCCOCCNC(=O)CCCN1C(=O)CC(SC[C@H](NC(=O)[C@H](CCCC[n+]2c(C)cc(/C=C/c3ccc(N(C)C)cc3)cc2C)NC(=O)CC[C@H](C(=O)O)N2CCN(CC(=O)O)CCN(CC(=O)O)CC2)C(N)=O)C1=O)C(C)C)C(N)=O` (some centres unmarked) [7 a, BBN7-14-pyrylium-NODA-GA] had a logD of -2.38 ± 0.02. The same measure, in the same setting: under `CCCC[C@H](NC(=O)CCOCCOCCOCCOCCNC(=O)CCCN1C(=O)CC(SC[C@H](NC(=O)[C@H](CCCC[n+]2c(C)cc(/C=C/c3ccc(N(C)C)cc3)cc2C)NC(=O)CC[C@H](C(=O)O)N2CCN(CC(=O)O)CCN(CC(=O)O)CC2)C(N)=O)C1=O)C(=O)N[C@H]1CC(=O)NCCCC[C@@H](C(N)=O)NC(=O)[C@H](Cc2c[nH]c3ccccc23)NC(=O)[C@H](CCCNC(=N)N)NC(=O)[C@@H](Cc2ccccc2)NC(=O)[C@H](Cc2c[nH]cn2)NC1=O` (some centres unmarked) [7 b, Nle-c(DHfRWK)-pyrylium-NODA-GA] stands -2.03 ± 0.06; under `Cc1cc(/C=C/c2ccc(N(C)C)cc2)cc(C)[n+]1CCCC[C@H](NC(=O)CC[C@H](C(=O)O)N1CCN(CC(=O)O)CCN(CC(=O)O)CC1)C(=O)N[C@@H](CSC1CC(=O)N(CCCC(=O)NCCOCCOCCOCCOCCC(=O)NCCCC[C@@H]2NC(=O)[C@@H](Cc3ccccc3)NC(=O)[C@H](CC(=O)O)NC(=O)CNC(=O)[C@H](CCCNC(=N)N)NC2=O)C1=O)C(N)=O` (some centres unmarked) [7 c, c(RGDfK)-pyrylium-NODA-GA], -2.51 ± 0.09. On the same count and under the same terms, the value for `CSCC[C@H](NC(=O)[C@H](CC(C)C)NC(=O)[C@H](Cc1c[nH]cn1)NC(=O)CNC(=O)[C@@H](NC(=O)[C@H](C)NC(=O)[C@H](Cc1c[nH]c2ccccc12)NC(=O)[C@H](CCC(N)=O)NC(=O)CCOCCOCCOCCOCCNC(=O)CCCN1C(=O)CC(SC[C@H](NC(=O)[C@H](CCCCNS(=O)(=O)c2cccc3c(N(C)C)cccc23)NC(=O)CC[C@H](C(=O)O)N2CCN(CC(=O)O)CCN(CC(=O)O)CC2)C(N)=O)C1=O)C(C)C)C(N)=O` (some centres unmarked) [8 a, BBN7-14-dansyl-NODA-GA] was -1.44 ± 0.01.

Compound `CCCC[C@H](NC(=O)CCOCCOCCOCCOCCNC(=O)CCCN1C(=O)CC(SC[C@H](NC(=O)[C@H](CCCCNS(=O)(=O)c2cccc3c(N(C)C)cccc23)NC(=O)CC[C@H](C(=O)O)N2CCN(CC(=O)O)CCN(CC(=O)O)CC2)C(N)=O)C1=O)C(=O)N[C@H]1CC(=O)NCCCC[C@@H](C(N)=O)NC(=O)[C@H](Cc2c[nH]c3ccccc23)NC(=O)[C@H](CCCNC(=N)N)NC(=O)[C@@H](Cc2ccccc2)NC(=O)[C@H](Cc2c[nH]cn2)NC1=O` (some centres unmarked) [8 b, Nle-c(DHfRWK)-dansyl-NODA-GA] displayed a logD in data set [1] of -1.66 ± 0.03.

Regarding `CN(C)c1cccc2c(S(=O)(=O)NCCCC[C@H](NC(=O)CC[C@H](C(=O)O)N3CCN(CC(=O)O)CCN(CC(=O)O)CC3)C(=O)N[C@@H](CSC3CC(=O)N(CCCC(=O)NCCOCCOCCOCCOCCC(=O)NCCCC[C@@H]4NC(=O)[C@@H](Cc5ccccc5)NC(=O)[C@H](CC(=O)O)NC(=O)CNC(=O)[C@H](CCCNC(=N)N)NC4=O)C3=O)C(N)=O)cccc12` (some centres unmarked) [8 c, c(RGDfK)-dansyl-NODA-GA], the logD in data set [1] is -2.17 ± 0.14. Take `CCCC[C@H](NC(=O)CCOCCOCCOCCOCCNC(=O)CCCN1C(=O)CC(SC[C@H](NC(=O)[C@H](CCCCNC(=O)c2ccc(C3=C(/C=C/C4=[N+](CCCCS(=O)(=O)O)c5ccc6ccccc6c5C4(C)C)CCC/C3=C\C=C3\N(CCCCS(=O)(=O)[O-])c4ccc5ccccc5c4C3(C)C)cc2)NC(=O)CC[C@H](C(=O)O)N2CCN(CC(=O)O)CCN(CC(=O)O)CC2)C(N)=O)C1=O)C(=O)N[C@H]1CC(=O)NCCCC[C@@H](C(N)=O)NC(=O)[C@H](Cc2c[nH]c3ccccc23)NC(=O)[C@H](CCCNC(=N)N)NC(=O)[C@@H](Cc2ccccc2)NC(=O)[C@H](Cc2c[nH]cn2)NC1=O` (some centres unmarked) [9 b, Nle-c(DHfRWK)-cyanine-NODA-GA]: the logD in data set [1] was -1.42 ± 0.13. On the same count and under the same terms, the value for `CC1(C)C(/C=C/C2=C(c3ccc(C(=O)NCCCC[C@H](NC(=O)CC[C@H](C(=O)O)N4CCN(CC(=O)O)CCN(CC(=O)O)CC4)C(=O)N[C@@H](CSC4CC(=O)N(CCCC(=O)NCCOCCOCCOCCOCCC(=O)NCCCC[C@@H]5NC(=O)[C@@H](Cc6ccccc6)NC(=O)[C@H](CC(=O)O)NC(=O)CNC(=O)[C@H](CCCNC(=N)N)NC5=O)C4=O)C(N)=O)cc3)C(=C/C=C3/N(CCCCS(=O)(=O)[O-])c4ccc5ccccc5c4C3(C)C)/CCC2)=[N+](CCCCS(=O)(=O)O)c2ccc3ccccc3c21` (some centres unmarked) [9 c, c(RGDfK)-cyanine-NODA-GA] was -1.97 ± 0.18; that for `N=C(N)NCCC[C@@H]1NC(=O)[C@H](CCCCNC(=O)CCOCCOCCOCCOCCNC(=O)CCCN2C(=O)CC(SC[C@H](NC(=O)CNC(=O)CC[C@H](C(=O)O)N3CCN(CC(=O)O)CCN(CC(=O)O)CC3)C(N)=O)C2=O)NC(=O)[C@@H](Cc2ccccc2)NC(=O)[C@H](CC(=O)O)NC(=O)CNC1=O` (some centres unmarked) [10 c, c(RGDfK)-NODA-GA] was -4.06 ± 0.1.

Take `Cc1cc(/C=C/c2ccc(N(C)C)cc2)cc(C)[n+]1CCCC[C@H](NC(=O)CC[C@H](C(=O)O)N1CCN(CC(=O)O)CCN(CC(=O)O)CC1)C(=O)N[C@@H](CS)C(N)=O` [Compound 7]: in data set [2], the logD is recorded as −2.04 ± 0.11. The “Stokes Shift” value in data set [3] (MIU, λex = 400 nm) is reported as 160 nm. In data set [3] (MIUs), the “log ε” value was 4.16 M^−1cm^−1 and the “λmax(abs)” value is 440 nm. For the same compound, the “λmax(em)” value in data set [3] (MIUs, λex = 400 nm) is given as 600 nm. On to `CN(C)c1cccc2c(S(=O)(=O)NCCCC[C@H](NC(=O)CC[C@H](C(=O)O)N3CCN(CC(=O)O)CCN(CC(=O)O)CC3)C(=O)N[C@@H](CS)C(N)=O)cccc12` [Compound 8, thio-dansyl-NODA-GA], for which the logD in data set [2] is −1.39 ± 0.04. The “λmax(em)” value in data set [3] (MIUs, λex = 400 nm) was 550 nm.

As to `CC1(C)C(/C=C/C2=C(c3ccc(C(=O)NCCCC[C@H](NC(=O)CC[C@H](C(=O)O)N4CCN(CC(=O)O)CCN(CC(=O)O)CC4)C(=O)N[C@@H](CS)C(N)=O)cc3)C(=C/C=C3/N(CCCCS(=O)(=O)[O-])c4ccc5ccccc5c4C3(C)C)/CCC2)=[N+](CCCCS(=O)(=O)O)c2ccc3ccccc3c21` [Compound 9, thio-cyanine-NODA-GA], in data set [2], the logD is −1.29 ± 0.11. In addition, in data set [3] (MIU, λex = 650 nm), the “Stokes Shift” value is on record as 10 nm and the “λmax(em)” value is 800 nm. Besides, in data set [3] (MIUs), the “λmax(abs)” value is 720/790. `NC(=O)[C@H](CS)NC(=O)CNC(=O)CC[C@H](C(=O)O)N1CCN(CC(=O)O)CCN(CC(=O)O)CC1` [Compound 10, thio-NODA-GA]: the logD in data set [2] is reported as −3.35 ± 0.15.

`CSCC[C@H](NC(=O)[C@H](CC(C)C)NC(=O)[C@H](Cc1c[nH]cn1)NC(=O)CNC(=O)[C@@H](NC(=O)[C@H](C)NC(=O)[C@H](Cc1c[nH]c2ccccc12)NC(=O)[C@H](CCC(N)=O)NC(=O)CCOCCOCCOCCOCCNC(=O)CCCN1C(=O)CC(SC[C@H](NC(=O)CNC(=O)CC[C@H](C(=O)O)N2CCN(CC(=O)O)CCN(CC(=O)O)CC2)C(N)=O)C1=O)C(C)C)C(N)=O` (some centres unmarked) [[^68Ga]Ga-10 a, metal not drawn] yielded a logD in data set [1] of -3.78 ± 0.04. Same read-out and setting: the value for `CCCC[C@H](NC(=O)CCOCCOCCOCCOCCNC(=O)CCCN1C(=O)CC(SC[C@H](NC(=O)CNC(=O)CC[C@H](C(=O)O)N2CCN(CC(=O)O)CCN(CC(=O)O)CC2)C(N)=O)C1=O)C(=O)N[C@H]1CC(=O)NCCCC[C@@H](C(N)=O)NC(=O)[C@H](Cc2c[nH]c3ccccc23)NC(=O)[C@H](CCCNC(=N)N)NC(=O)[C@@H](Cc2ccccc2)NC(=O)[C@H](Cc2c[nH]cn2)NC1=O` (some centres unmarked) [[^68Ga]Ga-10 b, metal not drawn] was -3.36 ± 0.02.
